Where two headings read alike, the source gives them in different places.
Test system: NL-RLuc virus (recombinant NL4-3 proviral clone with Renilla Luciferase gene)
Assay: Inhibition of HIV replication (NL-RLuc reporter virus in MT-2 cells)
Format: cell-based
Details: Renilla, NL43, 120 h
Source text: Inhibition of HIV replication: A recombinant NL-RLuc proviral clone was constructed in which a section of the nef gene from NL4-3 was replaced with the Renilla Luciferase gene. This virus is fully infectious and can undergo multiple cycles of replication in cell culture. In addition, the luciferous reporter provides a simple and easy method for quantitating the extent of virus growth and consequently, the antiviral activity of test compounds. The plasmid pNLRLuc contains the proviral NL-Rluc DNA cloned into pUC18 at the PvuII site. The NL-RLuc virus was prepared by transfection of 293T cells with the plasmid pNLRLuc. Transfections were performed using the LipofectAMINE PLUS kit from Invitrogen (Carlsbad, Calif.) according to the manufacturer and the virus generated was titered in MT-2 cells. For susceptibility analyses, the titrated virus was used to infect MT-2 cells in the presence of compound, and after 5 days of incubation, cells were processed and quantitated for virus growth by the amount of expressed luciferase. Assay media was RPMI 1640 supplemented with 10% heat inactivated fetal bovine serum (FBS), 100 units/ml penicillin G/100 units/ml streptomycin, 10 mM HEPES buffer pH 7.55 and 2 mM L-glutamine. The results from at least 2 experiments were used to calculate the EC50 values. Luciferase was quantitated using the Dual Luciferase kit from Promega (Madison, Wis.). Susceptibility of viruses to compounds was determined by incubation in the presence of serial dilutions of the compound. The 50% effective concentration (EC50) was calculated by using the exponential form of the median effect equation where (Fa)=1/[1+(ED50/drug conc.)^m] (Johnson V A, Byington R T. Infectivity Assay. In Techniques in HIV Research. ed. Aldovini A, Walker B D. 71-76. New York: Stockton Press.1990). Activity equal to A refers to a compound having an EC50≤100 nM, while B and C denote compounds having an EC50 between 100 nM and 1 uM (B) or >1 uM (C).

| Structure (SMILES) | EC50 (read-out: Activity) [µM] | EC50 (read-out: EC50 μM) [µM] |
| --- | --- | --- |
| Cc1nc(C)c([C@H](OC(C)(C)C)C(=O)O)c(N2CCC(C)(C)CC2)c1-c1ccc(NC(=O)Cc2ccc(F)cc2)cc1 [Example 72, (S)-2-(tert-Butoxy)-2-(4-(4,4-dimethylpiperidin-1-yl)-5-(4-(2-(4-fluorophenyl)acetamido)phenyl)-2,6-dimethylpyridin-3-yl)acetic acid] | < 0.1 | – |
| Cc1nc(C)c([C@H](OC(C)(C)C)C(=O)O)c(N2CCC(C)(C)CC2)c1-c1ccc(S(=O)(=O)NC2CC2)cc1 [Example 35, (S)-2-(tert-Butoxy)-2-(5-(4-(N-cyclopropylsulfamoyl)phenyl)-4-(4,4-dimethylpiperidin-1-yl)-2,6-dimethylpyridin-3-yl)acetic acid] | 0.1 to 1 | – |
| Cc1nc(C)c([C@H](OC(C)(C)C)C(=O)O)c(N2CC(C)CC(C)C2)c1-c1ccc(C(=O)NCc2ccccc2)cc1 (some centres unmarked) [Example 53] | 0.1 to 1 | – |
| CCC1(C)CCN(c2c(-c3ccc(C(=O)NCc4ccccc4)cc3)c(C)nc(C)c2[C@H](OC(C)(C)C)C(=O)O)CC1 [Example 56, (S)-2-(5-(4-(Benzylcarbamoyl)phenyl)-4-(4-ethyl-4-methylpiperidin-1-yl)-2,6-dimethylpyridin-3-yl)-2-(tert-butoxy)acetic acid] | < 0.1 | – |
| Cc1nc(C)c([C@H](OC(C)(C)C)C(=O)O)c(N2CCC(C)(C)CC2)c1-c1ccc(C=Cc2ccc(F)cc2)cc1 [Example 84, (S)-2-(tert-Butoxy)-2-(4-(4,4-dimethylpiperidin-1-yl)-5-(4-(4-fluorostyryl)phenyl)-2,6-dimethylpyridin-3-yl)acetic acid] | 0.1 to 1 | 0.126 |
| Cc1nc(C)c([C@H](OC(C)(C)C)C(=O)O)c(N2CCC(C)(C)CC2)c1-c1ccc(-c2nnn[nH]2)cc1 [Example 46, (S)-2-(5-(4-(1H-Tetrazol-5-yl)phenyl)-4-(4,4-dimethylpiperidin-1-yl)-2,6-dimethylpyridin-3-yl)-2-(tert-butoxy)acetic acid] | > 1 | – |
| CCOC(=O)Nc1ccc(-c2c(C)nc(C)c([C@H](OC(C)(C)C)C(=O)O)c2N2CCC(C)(C)CC2)cc1 [Example 71, (S)-2-(tert-Butoxy)-2-(4-(4,4-dimethylpiperidin-1-yl)-5-(4-((ethoxycarbonyl)amino)phenyl)-2,6-dimethylpyridin-3-yl)acetic acid] | < 0.1 | – |
| Cc1nc(C)c([C@H](OC(C)(C)C)C(=O)O)c(N2CCC(C)(C)CC2)c1-c1cncnc1 [Example 28, (S)-2-(tert-Butoxy)-2-(4-(4,4-dimethylpiperidin-1-yl)-2,6-dimethyl-5-(pyrimidin-5-yl)pyridin-3-yl)acetic acid] | 0.1 to 1 | – |
| Cc1nc(C)c([C@H](OC(C)(C)C)C(=O)O)c(N2CCC(C)(C)CC2)c1-c1cccc(C(C)C)c1 [Example 40, (S)-2-(tert-Butoxy)-2-(4-(4,4-dimethylpiperidin-1-yl)-5-(3-isopropylphenyl)-2,6-dimethylpyridin-3-yl)acetic acid] | < 0.1 | – |
| CC(=O)N(CCc1ccc(F)cc1)c1ccc(-c2c(C)nc(C)c([C@H](OC(C)(C)C)C(=O)O)c2N2CCC(C)(C)CC2)cc1 [Example 75, (S)-2-(tert-Butoxy)-2-(4-(4,4-dimethylpiperidin-1-yl)-5-(4-(N-(4-fluorophenethyl)acetamido)phenyl)-2,6-dimethylpyridin-3-yl)acetic acid] | < 0.1 | – |
| Cc1nc(C)c([C@H](OC(C)(C)C)C(=O)O)c(N2CCC(C)(C)CC2)c1-c1ccc(N)cc1 [Example 70, (S)-2-(5-(4-Aminophenyl)-4-(4,4-dimethylpiperidin-1-yl)-2,6-dimethylpyridin-3-yl)-2-(tert-butoxy)acetic acid] | 0.1 to 1 | – |
| Cc1nc(C)c([C@H](OC(C)(C)C)C(=O)O)c(N2CCC(C)(C)CC2)c1-c1ccc(-c2ccccn2)cc1 [Example 13, (S)-2-(tert-butoxy)-2-(4-(4,4-dimethylpiperidin-1-yl)-2,6-dimethyl-5-(4-(pyridin-2-yl)phenyl)pyridin-3-yl)acetic acid] | < 0.1 | – |
| CCCCCc1ccc(-c2c(C)nc(C)c([C@H](OC(C)(C)C)C(=O)O)c2N2CCC(C)(C)CC2)cc1 [Example 22, (S)-2-(tert-Butoxy)-2-(4-(4,4-dimethylpiperidin-1-yl)-2,6-dimethyl-5-(4-pentylphenyl)pyridin-3-yl)acetic acid] | < 0.1 | – |
| Cc1ccc(-c2c(C)nc(C)c([C@H](OC(C)(C)C)C(=O)O)c2N2CCC(C)(C)CC2)cc1F [Example 19, (S)-2-(tert-Butoxy)-2-(4-(4,4-dimethylpiperidin-1-yl)-5-(3-fluoro-4-methylphenyl)-2,6-dimethylpyridin-3-yl)acetic acid] | < 0.1 | – |
| Cc1nc(C)c([C@H](OC(C)(C)C)C(=O)O)c(N2CCC(C)(C)CC2)c1-c1ccc(C(=O)NC2CC2)cc1 [Example 43, (S)-2-(tert-Butoxy)-2-(5-(4-(cyclopropylcarbamoyl)phenyl)-4-(4,4-dimethylpiperidin-1-yl)-2,6-dimethylpyridin-3-yl)acetic acid] | < 0.1 | – |
| Cc1nc(C)c([C@H](OC(C)(C)C)C(=O)O)c(N2CCC(C)(C)CC2)c1-c1ccc(C(=O)CCc2ccc(F)cc2)cc1 [Example 50, (S)-2-(tert-Butoxy)-2-(4-(4,4-dimethylpiperidin-1-yl)-5-(4-(3-(4-fluorophenyl)propanoyl)phenyl)-2,6-dimethylpyridin-3-yl)acetic acid] | < 0.1 | – |
| Cc1nc(C)c([C@H](OC(C)(C)C)C(=O)O)c(N2CCC(C)CC2)c1-c1ccc(C(=O)NCc2ccccc2)cc1 [Example 58, (S)-2-(5-(4-(Benzylcarbamoyl)phenyl)-2,6-dimethyl-4-(4-methylpiperidin-1-yl)pyridin-3-yl)-2-(tert-butoxy)acetic acid] | < 0.1 | – |
| CCc1ccc(-c2ccc(-c3c(C)nc(C)c([C@H](OC(C)(C)C)C(=O)O)c3N3CCC(C)(C)CC3)cc2)cc1 [Example 12, (S)-2-(tert-Butoxy)-2-(4-(4,4-dimethylpiperidin-1-yl)-5-(4′-ethyl-[1,1′-biphenyl]-4-yl)-2,6-dimethylpyridin-3-yl)acetic acid] | 0.1 to 1 | – |
| Cc1nc(C)c([C@H](OC(C)(C)C)C(=O)O)c(N2CCC(C)(C)CC2)c1-c1ccc(C(O)CCc2ccc(F)cc2)cc1 (stereo partly drawn) [Example 51, (2S)-2-(tert-Butoxy)-2-(4-(4,4-dimethylpiperidin-1-yl)-5-(4-(3-(4-fluorophenyl)-1-hydroxypropyl)phenyl)-2,6-dimethylpyridin-3-yl)acetic acid] | < 0.1 | – |
| Cc1nc(C)c([C@H](OC(C)(C)C)C(=O)O)c(N2CCC(c3ccccc3)CC2)c1-c1ccc(C(=O)NCc2ccccc2)cc1 [Example 62, (S)-2-(5-(4-(Benzylcarbamoyl)phenyl)-2,6-dimethyl-4-(4-phenylpiperidin-1-yl)pyridin-3-yl)-2-(tert-butoxy)acetic acid] | > 1 | – |
| Cc1nc(C)c([C@H](OC(C)(C)C)C(=O)O)c(N2CCC(C)(C)CC2)c1-c1ccc(C(C)(C)C#N)cc1 [Example 36, (S)-2-(tert-Butoxy)-2-(5-(4-(2-cyanopropan-2-yl)phenyl)-4-(4,4-dimethylpiperidin-1-yl)-2,6-dimethylpyridin-3-yl)acetic acid] | < 0.1 | – |
| Cc1nc(C)c([C@H](OC(C)(C)C)C(=O)O)c(N2CCC(C)(C)CC2)c1-c1ccc(N2CCCCC2)cc1 [Example 29, (S)-2-(tert-Butoxy)-2-(4-(4,4-dimethylpiperidin-1-yl)-2,6-dimethyl-5-(4-(piperidin-1-yl)phenyl)pyridin-3-yl)acetic acid] | < 0.1 | – |

— patent US20180170904A1, “PYRIDIN-3-YL ACETIC ACID DERIVATIVES AS INHIBITORS OF HUMAN IMMUNODEFICIENCY VIRUS REPLICATION” (priority 2015, published 2018)
